Results on one molecule are retold here after patent US11820764B2, “Compound modulating GSK-3 activity” (National Institute of Immunology, priority 2020, dated 2023).

SMILES strings stand for the structures.

Data set [1] is described as follows: Pharmacokinetics in rats, plasma HPLC. The format is in vivo. Particulars: both sexes, rat, 15 ug/kg. As to the method: The rats were randomly divided into two groups (I and II) in half respectively male and female. A dose of 15 μg/kg of Compound Y was administered to group I and II. Serial blood samples (0.5 mL) were collected into heparinized tubes from the retro-orbital region at 1, 2, 4, 6, 12, 24, 36, 48, and 72 h. Samples were immediately centrifuged at 12,000 rpm for 10 min and stored at −20° C. until analysis. Plasma was processed for HPLC analysis. 100 μl Acetonitrile was added in 100 μl plasma (1:1) and centrifuge at 12,000 for 5 minute. Supernatant transferred in a clean tube. Dried under Nitrogen gas 200 μl Acetonitrile: water (1:1) was added in dry tube and centrifuge at 12,000 rpm for 15 minute. Filtered with 0.2 μm membrane filter. 20 μl samples were used for analysis in HPLC. […] (FIG. 5)

Data set [2] in a line: Blood brain barrier crossing, mass spectrometry of cerebrospinal fluid of treated mice. In kind it is in vivo. Particulars: CSF of treated animals.

As usually defined, the Cmax is the maximum level reached in the sampled fluid or tissue. The Tmax is the time from dosing to the highest level. For `O=C(O)CCCCCN1C(=O)/C(=C/c2c[nH]c3ccccc23)SC1=S` [SG001], in data set [1], the Cmax turned out to be 27 nM and the Tmax was determined as 48 h. In data set [2], the “crossing of blood brain barrier (detection in CSF)” value is “able to cross the blood brain barrier”.
